From ChEMBL document CHEMBL1148225, “Discovery and SAR of trisubstituted thiazolidinones as CCR4 antagonists” (Bioorg Med Chem Lett, 2004)

The compounds below were run against T1, C-C chemokine receptor type 4 (Homo sapiens, UniProt P51679) (assay: Inhibition of [125I]MDC binding to recombinant human C-C chemokine receptor type 4 (CCR4) expressed in murine pre-B cells).
T1 sequence (P51679 whole entry): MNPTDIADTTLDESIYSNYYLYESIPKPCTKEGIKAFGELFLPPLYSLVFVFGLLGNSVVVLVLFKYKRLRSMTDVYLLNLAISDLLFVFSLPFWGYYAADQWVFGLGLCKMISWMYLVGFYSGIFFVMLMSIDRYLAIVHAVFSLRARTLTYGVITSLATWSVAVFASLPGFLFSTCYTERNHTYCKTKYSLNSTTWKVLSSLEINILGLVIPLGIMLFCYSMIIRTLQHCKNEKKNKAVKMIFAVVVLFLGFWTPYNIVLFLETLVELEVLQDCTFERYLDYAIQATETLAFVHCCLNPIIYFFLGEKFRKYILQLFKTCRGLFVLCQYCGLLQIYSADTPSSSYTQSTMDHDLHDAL
Assay type: cell-based
`C[C@@H](NC(=O)C[C@H]1S[C@H](c2ccc(Cl)cc2Cl)N(CC(=O)NCCCN2CCCCC2)C1=O)c1cccc2ccccc12` gave an IC50 of 0.11 µM.
With `O=C(C[C@H]1S[C@H](c2ccoc2)N(CC(=O)NCCCN2CCOCC2)C1=O)NCc1cccc2ccccc12` the IC50 was 100 µM.
In the case of `O=C(C[C@H]1S[C@H](c2ccc(Cl)cc2Cl)N(CC(=O)NCCCCCN2CCOCC2)C1=O)NCc1cccc2ccccc12`, the IC50 is reported as 2.4 µM.
With `O=C(CN1C(=O)[C@@H](CC(=O)N[C@@H]2CCc3ccccc32)S[C@@H]1c1ccc(Cl)cc1Cl)NCCCN1CCOCC1` the IC50 was 2.9 µM.
Compound `O=C(C[C@H]1S[C@H](c2cccs2)N(CC(=O)NCCCN2CCOCC2)C1=O)NCc1cccc2ccccc12` has an IC50 of 33 µM.
For `COc1ccc([C@H]2S[C@H](CC(=O)NCc3cccc4ccccc34)C(=O)N2CC(=O)NCCCN2CCOCC2)c(OC)c1`, the IC50 was 33 µM.
For `C[C@H](NC(=O)C[C@H]1S[C@H](c2ccc(Cl)cc2Cl)N(CC(=O)NCCCN2CCOCC2)C1=O)c1cccc2ccccc12`, the IC50 was 8 µM.
`CN1CCN(C(=O)CN2C(=O)[C@@H](CC(=O)NCc3cccc4ccccc34)S[C@@H]2c2ccc(Cl)cc2Cl)CC1` showed an IC50 of 20 µM.
For `O=C(C[C@H]1S[C@H](c2ccco2)N(CC(=O)NCCCN2CCOCC2)C1=O)NCc1cccc2ccccc12`, the IC50 was 29 µM.
Compound `Cc1c(Cl)cccc1CNC(=O)C[C@H]1S[C@H](c2ccc(Cl)cc2Cl)N(CC(=O)NCCCN2CCCCC2)C1=O` has an IC50 of 0.14 µM.
Compound `O=C(C[C@H]1S[C@H](c2cccc(Cl)c2Cl)N(CC(=O)NCCCN2CCOCC2)C1=O)NCc1cccc2ccccc12` has an IC50 of 18 µM.
Work on `CN(C)CCN1C(=O)[C@@H](CC(=O)NCc2cccc3ccccc23)S[C@@H]1c1ccc(Cl)cc1Cl` yielded an IC50 of 36 µM.
With `O=C(C[C@H]1S[C@H](c2ccc(Cl)cc2Cl)N(CC(=O)NCCCN2CCOCC2)C1=O)NCc1ccc(-c2ccccc2)cc1` the IC50 was 2.5 µM.
For `O=C(C[C@H]1S[C@H](c2ccncc2)N(CC(=O)NCCCN2CCOCC2)C1=O)NCc1cccc2ccccc12`, the IC50 was 34 µM.
With `O=C(C[C@H]1S[C@H](c2c(Cl)cccc2Cl)N(CC(=O)NCCCN2CCOCC2)C1=O)NCc1cccc2ccccc12` the IC50 was 8 µM.
With `O=C(C[C@H]1S[C@H](c2ccc(Cl)cc2Cl)N(CC(=O)NCCCN2CCOCC2)C1=O)NCc1ccco1` the IC50 was 7 µM.
`Cc1c(Cl)cccc1CNC(=O)C[C@H]1S[C@H](c2ccc(Cl)cc2Cl)N(CC(=O)NCCCN2CCOCC2)C1=O` gave an IC50 of 0.4 µM.
In the case of `O=C(C[C@H]1S[C@H](c2ccc(Cl)cc2Cl)N(CC(=O)NCCCN2CCCC2)C1=O)NCc1cccc2ccccc12`, the IC50 is reported as 0.31 µM.
In the case of `O=C(C[C@H]1S[C@H](c2ccc(Cl)cc2Cl)N(CC(=O)NCCCN2CCOCC2)C1=O)NCc1cccc(C(F)(F)F)c1`, the IC50 is reported as 1 µM.
For `O=C(C[C@H]1S[C@H](c2ccc(Cl)cc2Cl)N(CC(=O)NCCCN2CCOCC2)C1=O)NCc1ccc(Cl)cc1Cl` (stereo in doubt; 72), the IC50 was 3 µM.
With `O=C(C[C@H]1S[C@H](c2ccc(Cl)cc2Cl)N(CC(=O)NCCCN2CCOCC2)C1=O)NCc1csc2ccccc12` the IC50 was 0.34 µM.
In the case of `O=C(C[C@H]1S[C@H](c2ccc(Cl)cc2Cl)N(CC(=O)NCCCN2CCOCC2)C1=O)NCc1cccc(C(F)(F)F)c1F`, the IC50 is reported as 2.5 µM.
Compound `O=C(C[C@H]1S[C@H](c2ccc(F)cc2F)N(CC(=O)NCCCN2CCOCC2)C1=O)NCc1cccc2ccccc12` has an IC50 of 1 µM.
`O=C(C[C@H]1S[C@H](c2ccc(Cl)cc2Cl)N(CCN2CCOCC2)C1=O)NCc1cccc2ccccc12` was tested, and the IC50 was 9 µM.
In the case of `O=C(C[C@H]1S[C@H](c2ccc(Cl)cc2Cl)N(CCCCN2CCOCC2)C1=O)NCc1cccc2ccccc12`, the IC50 is reported as 18 µM.
`O=C(C[C@H]1S[C@@H](c2ccc(Cl)cc2)N(CC(=O)NCCCN2CCOCC2)C1=O)NCc1cccc2ccccc12` gave an IC50 of roughly 6 µM.
Work on `NCCNC(=O)CCN1C(=O)[C@@H](CC(=O)NCc2cccc3ccccc23)S[C@@H]1c1ccc(Cl)cc1Cl` yielded an IC50 of 9 µM.
With `C[C@@H](NC(=O)C[C@H]1S[C@H](c2ccc(Cl)cc2Cl)N(CC(=O)NCCCN2CCOCC2)C1=O)c1ccccc1` (stereo in doubt) the IC50 was 8 µM.
`O=C(C[C@H]1S[C@H](c2ccc(Cl)cc2Cl)N(Cc2cccc(CN3CCOCC3)c2)C1=O)NCc1cccc2ccccc12` was tested, and the IC50 was 100 µM.
In the case of `O=C(C[C@H]1S[C@H](c2ccc(Cl)cc2Cl)N(CC(=O)NCCCN2CCOCC2)C1=O)NCc1cc(Cl)ccc1Cl`, the IC50 is reported as 4 µM.
For `CN1CCC(NC(=O)CN2C(=O)[C@@H](CC(=O)NCc3cccc4ccccc34)S[C@@H]2c2ccc(Cl)cc2Cl)CC1`, the IC50 was 8 µM.
For `O=C(CN1C(=O)[C@@H](CC(=O)NC(c2ccccc2)c2ccccc2)S[C@@H]1c1ccc(Cl)cc1Cl)NCCCN1CCOCC1`, the IC50 was 6 µM.
Compound `O=C(C[C@H]1S[C@H](c2ccc(Cl)cc2Cl)N(CC(=O)NCCCN2CCOCC2)C1=O)NCc1ccc(Cl)c(C(F)(F)F)c1` has an IC50 of 6 µM.
Compound `O=C(C[C@H]1S[C@H](c2cc(Cl)ccc2Cl)N(CC(=O)NCCCN2CCOCC2)C1=O)NCc1cccc2ccccc12` has an IC50 of 12 µM.

The compounds below were run against T2, C-C chemokine receptor type 4 (Homo sapiens) (UniProt P51679) (assay: Dose required to inhibit TARC-stimulated chemotaxis in CCR4+ Th2 cell lines derived from primary human T-cells).
T2 sequence (whole entry): T1 sequence (P51679 whole entry)
Assay type: functional, cell-based
`C[C@@H](NC(=O)C[C@H]1S[C@H](c2ccc(Cl)cc2Cl)N(CC(=O)NCCCN2CCCCC2)C1=O)c1cccc2ccccc12` showed an ED50 of 0.3 µM.

Each compound was assayed against T1, C-C chemokine receptor type 4 (assay: Inhibitory activity against [125I]MDC binding to human Chemokine receptor type 4 expressed in murine pre-B cells).
Assay type: cell-based
`O=C(C[C@H]1S[C@H](c2ccc(C(F)(F)F)cc2C(F)(F)F)N(CC(=O)NCCCN2CCOCC2)C1=O)NCc1cccc2ccccc12` showed an IC50 greater than 100 µM.
